For orientation: inhibition means the percentage by which the read-out fell short of the control. Low values mean little suppression, high ones strong suppression.

Experiment [1] deals with RAC-alpha serine/threonine-protein kinase (Homo sapiens) (UniProt P31749). The experiment in a line: Inhibition of AKT1 (unknown origin) at 1 uM.
Experiment [2] addresses Serine/threonine-protein kinase PAK 4 (Homo sapiens) (UniProt O96013). The experiment can be described thus: Inhibition of PAK4 (unknown origin) at 1 uM.
The target of experiment [3] is Epithelial discoidin domain-containing receptor 1 (Homo sapiens) (UniProt Q08345). The experiment can be described thus: Inhibition of DDR1 (unknown origin) at 1 uM.
Sequence of Epithelial discoidin domain-containing receptor 1 (Homo sapiens) (Q08345 whole entry, the tested form may be a part): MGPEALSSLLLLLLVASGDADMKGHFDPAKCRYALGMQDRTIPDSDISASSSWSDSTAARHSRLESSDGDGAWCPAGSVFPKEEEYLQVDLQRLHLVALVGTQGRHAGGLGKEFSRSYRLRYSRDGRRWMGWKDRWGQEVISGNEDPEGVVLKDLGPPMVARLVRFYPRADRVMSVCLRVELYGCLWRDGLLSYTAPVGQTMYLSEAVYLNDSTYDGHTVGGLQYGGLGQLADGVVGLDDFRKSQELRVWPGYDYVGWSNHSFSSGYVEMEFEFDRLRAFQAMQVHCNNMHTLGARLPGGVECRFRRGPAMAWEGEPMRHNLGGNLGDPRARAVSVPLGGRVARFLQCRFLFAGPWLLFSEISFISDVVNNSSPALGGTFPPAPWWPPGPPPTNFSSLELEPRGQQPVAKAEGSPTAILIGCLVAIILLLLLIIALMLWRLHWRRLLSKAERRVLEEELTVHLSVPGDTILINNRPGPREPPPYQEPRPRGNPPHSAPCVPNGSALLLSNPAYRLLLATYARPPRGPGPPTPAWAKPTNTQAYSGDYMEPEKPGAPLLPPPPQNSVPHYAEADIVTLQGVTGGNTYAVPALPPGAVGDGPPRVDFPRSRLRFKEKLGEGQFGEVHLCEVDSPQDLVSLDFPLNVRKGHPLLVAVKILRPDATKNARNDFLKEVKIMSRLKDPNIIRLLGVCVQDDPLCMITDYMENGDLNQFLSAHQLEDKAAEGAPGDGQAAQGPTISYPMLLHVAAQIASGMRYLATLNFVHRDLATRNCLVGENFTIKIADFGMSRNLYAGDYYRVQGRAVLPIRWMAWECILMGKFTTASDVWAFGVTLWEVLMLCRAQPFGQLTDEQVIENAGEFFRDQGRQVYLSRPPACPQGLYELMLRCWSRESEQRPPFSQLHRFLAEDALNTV
The target in experiment [4] is Mast/stem cell growth factor receptor Kit (Homo sapiens) (UniProt P10721). The experiment can be described thus: Inhibition of cKIT (unknown origin) at 1 uM.
For experiment [5], the target named is Mitogen-activated protein kinase 8 (Homo sapiens, UniProt P45983). The experiment can be described thus: Inhibition of JNK1 (unknown origin) at 1 uM.
Sequence of Mitogen-activated protein kinase 8 (P45983 whole entry): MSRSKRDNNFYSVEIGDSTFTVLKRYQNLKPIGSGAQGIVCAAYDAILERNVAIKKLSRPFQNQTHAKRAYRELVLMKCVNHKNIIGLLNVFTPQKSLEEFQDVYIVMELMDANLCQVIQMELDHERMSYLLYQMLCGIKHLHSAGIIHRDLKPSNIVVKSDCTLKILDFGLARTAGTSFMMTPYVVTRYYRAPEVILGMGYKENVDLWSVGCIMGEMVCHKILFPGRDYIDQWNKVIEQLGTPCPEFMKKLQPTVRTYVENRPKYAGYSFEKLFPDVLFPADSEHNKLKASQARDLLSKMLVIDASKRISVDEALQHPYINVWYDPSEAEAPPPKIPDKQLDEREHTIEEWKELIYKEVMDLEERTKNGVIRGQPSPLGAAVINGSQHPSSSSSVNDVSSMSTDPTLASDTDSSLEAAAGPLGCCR
The target in experiment [6] is Proto-oncogene tyrosine-protein kinase Src (Homo sapiens) (UniProt P12931). The experiment can be described thus: Inhibition of SRC (unknown origin) at 1 uM.
Sequence of Proto-oncogene tyrosine-protein kinase Src (Homo sapiens) (P12931 2-536 limits assumed): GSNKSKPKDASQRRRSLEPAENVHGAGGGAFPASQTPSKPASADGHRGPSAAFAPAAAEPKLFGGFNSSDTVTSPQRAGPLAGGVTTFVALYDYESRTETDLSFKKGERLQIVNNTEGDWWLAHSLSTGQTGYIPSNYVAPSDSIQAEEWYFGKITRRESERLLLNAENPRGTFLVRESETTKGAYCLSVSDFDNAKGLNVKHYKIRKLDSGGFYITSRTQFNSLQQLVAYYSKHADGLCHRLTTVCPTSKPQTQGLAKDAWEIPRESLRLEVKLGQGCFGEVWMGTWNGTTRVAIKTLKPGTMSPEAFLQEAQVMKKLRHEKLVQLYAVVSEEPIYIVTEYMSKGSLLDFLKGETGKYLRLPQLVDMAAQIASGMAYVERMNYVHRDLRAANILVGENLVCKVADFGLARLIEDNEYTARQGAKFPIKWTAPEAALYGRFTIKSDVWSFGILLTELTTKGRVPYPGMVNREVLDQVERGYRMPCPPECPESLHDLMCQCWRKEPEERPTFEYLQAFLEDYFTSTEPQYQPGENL
For experiment [7], the target named is Platelet-derived growth factor receptor beta (Homo sapiens) (UniProt P09619). The experiment can be described thus: Inhibition of PDGFRbeta (unknown origin) at 1 uM.
In experiment [8] the target is Serine/threonine-protein kinase B-raf (Homo sapiens) (UniProt P15056). The experiment can be described thus: Inhibition of B-RAF (unknown origin) at 1 uM.
In experiment [9] the target is Tyrosine-protein kinase receptor UFO (Homo sapiens) (UniProt P30530). The experiment in a line: Inhibition of AXL (unknown origin) at 1 uM.
Sequence of Tyrosine-protein kinase receptor UFO (Homo sapiens) (P30530 whole entry): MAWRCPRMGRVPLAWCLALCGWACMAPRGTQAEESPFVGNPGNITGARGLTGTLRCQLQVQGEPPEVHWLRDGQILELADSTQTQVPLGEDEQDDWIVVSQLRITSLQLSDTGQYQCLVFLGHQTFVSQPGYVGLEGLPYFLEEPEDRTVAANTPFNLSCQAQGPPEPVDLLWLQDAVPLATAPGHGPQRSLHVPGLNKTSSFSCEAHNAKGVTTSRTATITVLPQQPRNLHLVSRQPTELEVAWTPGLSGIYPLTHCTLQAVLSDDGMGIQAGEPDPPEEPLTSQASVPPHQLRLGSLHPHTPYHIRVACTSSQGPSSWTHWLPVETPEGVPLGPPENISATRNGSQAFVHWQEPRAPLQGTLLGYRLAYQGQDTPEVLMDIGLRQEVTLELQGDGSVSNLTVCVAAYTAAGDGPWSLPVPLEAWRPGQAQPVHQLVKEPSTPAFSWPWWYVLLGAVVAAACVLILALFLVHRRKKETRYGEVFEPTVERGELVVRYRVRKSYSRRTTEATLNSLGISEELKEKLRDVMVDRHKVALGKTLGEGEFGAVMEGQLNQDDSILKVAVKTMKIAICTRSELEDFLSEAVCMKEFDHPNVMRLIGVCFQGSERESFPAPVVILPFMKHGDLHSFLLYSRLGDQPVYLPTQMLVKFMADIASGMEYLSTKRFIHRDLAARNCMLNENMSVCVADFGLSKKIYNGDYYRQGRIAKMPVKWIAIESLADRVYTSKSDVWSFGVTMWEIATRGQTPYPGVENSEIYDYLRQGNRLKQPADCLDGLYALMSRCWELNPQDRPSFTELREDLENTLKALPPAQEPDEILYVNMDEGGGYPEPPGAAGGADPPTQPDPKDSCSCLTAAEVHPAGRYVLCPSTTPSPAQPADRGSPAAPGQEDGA
The target of experiment [10] is Hepatocyte growth factor receptor (Homo sapiens) (UniProt P08581). The experiment in a line: Inhibition of cMET (unknown origin) at 1 uM.
In experiment [11] the target is Angiopoietin-1 receptor (Homo sapiens) (UniProt Q02763). The experiment in a line: Inhibition of TIE2 (unknown origin) at 1 uM.
The target in experiment [12] is T1, Aurora kinase A (Homo sapiens) (UniProt O14965).
T1 sequence (whole entry): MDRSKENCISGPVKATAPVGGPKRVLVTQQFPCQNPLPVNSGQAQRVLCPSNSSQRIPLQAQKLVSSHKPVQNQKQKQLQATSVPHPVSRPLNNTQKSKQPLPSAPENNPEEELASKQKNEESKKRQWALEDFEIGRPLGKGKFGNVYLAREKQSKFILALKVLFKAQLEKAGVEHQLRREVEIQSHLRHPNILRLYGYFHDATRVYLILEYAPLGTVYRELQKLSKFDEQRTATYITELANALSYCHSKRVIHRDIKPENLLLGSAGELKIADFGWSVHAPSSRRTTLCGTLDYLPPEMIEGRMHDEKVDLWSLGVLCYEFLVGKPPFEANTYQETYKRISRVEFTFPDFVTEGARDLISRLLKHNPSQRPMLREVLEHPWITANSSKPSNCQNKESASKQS
The experiment can be described thus: Inhibition of AurA (unknown origin) at 1 uM.

Experiment [13] has as its target Tyrosine-protein kinase ABL1 (Homo sapiens) (UniProt P00519). The experiment can be described thus: Inhibition of ABL (unknown origin) at 1 uM.
For experiment [14], the target named is CDK2/Cyclin A2 (Homo sapiens) (UniProt P24941+P20248). The experiment in a line: Inhibition of CDK2/CyclinA (unknown origin) at 1 uM. The experiment is classed as protein-complex assay.
Experiment [15] addresses T2, Inhibitor of nuclear factor kappa-B kinase subunit beta (Homo sapiens) (UniProt O14920).
T2 sequence (whole entry): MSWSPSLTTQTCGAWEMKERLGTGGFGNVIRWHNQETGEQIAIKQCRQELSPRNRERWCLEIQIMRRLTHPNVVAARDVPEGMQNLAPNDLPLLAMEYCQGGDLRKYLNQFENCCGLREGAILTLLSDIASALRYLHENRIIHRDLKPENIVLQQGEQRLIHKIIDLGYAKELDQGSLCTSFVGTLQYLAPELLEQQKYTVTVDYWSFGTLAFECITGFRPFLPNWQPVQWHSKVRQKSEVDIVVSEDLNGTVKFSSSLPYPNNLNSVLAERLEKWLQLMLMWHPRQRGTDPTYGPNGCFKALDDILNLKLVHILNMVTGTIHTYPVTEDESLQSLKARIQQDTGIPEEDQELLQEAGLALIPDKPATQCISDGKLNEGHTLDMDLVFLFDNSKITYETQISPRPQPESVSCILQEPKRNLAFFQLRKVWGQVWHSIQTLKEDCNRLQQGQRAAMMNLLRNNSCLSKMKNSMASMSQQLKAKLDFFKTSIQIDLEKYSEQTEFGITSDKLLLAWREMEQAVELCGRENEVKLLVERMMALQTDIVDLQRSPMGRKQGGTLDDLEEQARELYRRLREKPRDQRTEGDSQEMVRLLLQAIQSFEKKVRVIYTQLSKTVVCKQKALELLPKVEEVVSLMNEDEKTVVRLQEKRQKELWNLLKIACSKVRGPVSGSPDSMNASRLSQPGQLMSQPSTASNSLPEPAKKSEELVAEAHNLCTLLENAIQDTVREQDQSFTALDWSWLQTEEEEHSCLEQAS
The experiment in a line: Inhibition of IKKbeta (unknown origin) at 1 uM.

Sequence of RAC-alpha serine/threonine-protein kinase (Homo sapiens) (P31749 whole entry): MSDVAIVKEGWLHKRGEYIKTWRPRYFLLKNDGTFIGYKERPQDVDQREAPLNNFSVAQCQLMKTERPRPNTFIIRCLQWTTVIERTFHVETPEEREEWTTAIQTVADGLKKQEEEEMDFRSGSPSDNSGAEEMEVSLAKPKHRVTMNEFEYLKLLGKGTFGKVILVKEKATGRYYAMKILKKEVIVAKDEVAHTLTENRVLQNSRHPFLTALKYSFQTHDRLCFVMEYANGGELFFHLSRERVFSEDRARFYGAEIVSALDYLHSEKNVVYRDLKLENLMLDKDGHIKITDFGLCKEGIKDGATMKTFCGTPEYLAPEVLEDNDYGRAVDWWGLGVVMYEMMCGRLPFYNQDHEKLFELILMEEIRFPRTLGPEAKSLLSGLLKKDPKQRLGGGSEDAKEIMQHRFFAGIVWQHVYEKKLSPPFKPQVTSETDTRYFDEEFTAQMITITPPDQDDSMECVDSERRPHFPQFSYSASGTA
Sequence of Serine/threonine-protein kinase PAK 4 (Homo sapiens) (O96013 whole entry, looked up, the tested form may be a part): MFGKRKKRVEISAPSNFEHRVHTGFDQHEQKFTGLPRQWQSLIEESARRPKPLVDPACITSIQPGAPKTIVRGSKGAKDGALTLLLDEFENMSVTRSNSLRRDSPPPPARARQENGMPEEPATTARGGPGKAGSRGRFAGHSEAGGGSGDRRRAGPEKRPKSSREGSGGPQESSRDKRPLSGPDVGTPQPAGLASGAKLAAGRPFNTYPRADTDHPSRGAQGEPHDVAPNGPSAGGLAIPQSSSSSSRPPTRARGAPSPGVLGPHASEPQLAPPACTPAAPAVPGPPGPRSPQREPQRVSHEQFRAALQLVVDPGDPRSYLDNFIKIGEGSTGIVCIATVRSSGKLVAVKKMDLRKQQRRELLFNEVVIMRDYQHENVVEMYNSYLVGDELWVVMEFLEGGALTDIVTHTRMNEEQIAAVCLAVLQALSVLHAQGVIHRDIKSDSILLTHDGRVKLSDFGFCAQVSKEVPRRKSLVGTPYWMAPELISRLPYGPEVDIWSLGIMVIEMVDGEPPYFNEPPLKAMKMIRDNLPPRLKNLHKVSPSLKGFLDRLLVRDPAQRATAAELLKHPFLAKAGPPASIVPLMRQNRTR
Sequence of Tyrosine-protein kinase ABL1 (Homo sapiens) (P00519 whole entry): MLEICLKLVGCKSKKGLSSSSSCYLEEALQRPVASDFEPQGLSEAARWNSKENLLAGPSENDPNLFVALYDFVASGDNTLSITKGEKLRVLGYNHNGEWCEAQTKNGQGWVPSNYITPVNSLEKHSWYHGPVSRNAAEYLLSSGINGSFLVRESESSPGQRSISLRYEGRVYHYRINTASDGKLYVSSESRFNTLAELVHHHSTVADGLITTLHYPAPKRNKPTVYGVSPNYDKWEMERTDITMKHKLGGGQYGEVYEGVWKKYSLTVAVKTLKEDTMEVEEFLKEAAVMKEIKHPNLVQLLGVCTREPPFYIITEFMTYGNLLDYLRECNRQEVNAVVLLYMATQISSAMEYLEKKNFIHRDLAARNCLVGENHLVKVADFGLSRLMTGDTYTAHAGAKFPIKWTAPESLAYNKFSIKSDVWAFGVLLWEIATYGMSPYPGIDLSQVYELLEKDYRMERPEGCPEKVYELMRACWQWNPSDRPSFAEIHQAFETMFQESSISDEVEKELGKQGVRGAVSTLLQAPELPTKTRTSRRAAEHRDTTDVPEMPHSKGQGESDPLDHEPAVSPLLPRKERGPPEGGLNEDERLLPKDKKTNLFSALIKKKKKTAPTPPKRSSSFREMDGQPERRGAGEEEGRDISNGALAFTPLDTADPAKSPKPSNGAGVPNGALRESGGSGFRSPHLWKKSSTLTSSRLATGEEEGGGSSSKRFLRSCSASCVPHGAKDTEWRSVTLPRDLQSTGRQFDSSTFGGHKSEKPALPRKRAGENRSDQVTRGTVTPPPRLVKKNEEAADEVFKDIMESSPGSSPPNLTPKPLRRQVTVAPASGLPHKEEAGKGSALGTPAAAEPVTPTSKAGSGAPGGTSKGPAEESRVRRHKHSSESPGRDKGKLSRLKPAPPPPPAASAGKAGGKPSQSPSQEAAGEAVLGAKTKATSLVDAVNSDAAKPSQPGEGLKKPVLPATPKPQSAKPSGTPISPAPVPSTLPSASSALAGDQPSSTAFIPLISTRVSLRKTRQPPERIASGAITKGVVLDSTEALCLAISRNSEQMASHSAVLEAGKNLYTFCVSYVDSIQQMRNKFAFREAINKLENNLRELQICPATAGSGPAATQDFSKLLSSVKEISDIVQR

In the case of `Cn1c(=O)c(Oc2ccc(F)cc2F)cc2cnc(NC3CCN(S(N)(=O)=O)CC3)nc21`, the inhibition turned out to be 8% in experiment [1]; 32% in experiment [2]; 85% in experiment [3]; 17% in experiment [4]; 71% in experiment [5]; 7% in [6]. Further, the inhibition turned out to be 13% in experiment [7]; 18% in experiment [8]; 16% in [9]; 22% in experiment [10]; 10% in experiment [11]; 1% in experiment [12]. Moreover, the figures for the inhibition in [13], in [14] and in [15] were 17%, 10% and 13%, respectively.

These data come from ChEMBL document CHEMBL3745672, “Novel compounds reducing IRS-1 serine phosphorylation for treatment of diabetes” (Bioorg Med Chem Lett, 2016).
